Laboratory results: the supplement of paper PMC10307832

Legend:
Assay in all cases: relative viability (nuclei count vs DMSO), 5 days (fraction); higher = more cells survive
[1] = compound: CCc1cnn2c(NCc3ccc[n+]([O-])c3)cc(N3CCCC[C@H]3CCO)nc12 [Dinaciclib] + Nc1nc2[nH]cc(CCc3ccc(C(=O)N[C@@H](CCC(=O)O)C(=O)O)cc3)c2c(=O)[nH]1 [Pemetrexed] (partner 0.2 µM)
Summary of the method: (§1)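 Values are medians from duplicate plates. Each reflects relative viability, defined as the nuclei count of treated wells over that of vehicle wells. Lung cancer cell lines in 1536-well plates were pin-tool dosed one day after seeding with one drug alone or with a fixed anchor-drug dose plus five library-drug doses (not always all listed) in √10 steps, then fixed, stained and imaged at 4× after 5 days.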

[2] = compound: CCc1cnn2c(NCc3ccc[n+]([O-])c3)cc(N3CCCC[C@H]3CCO)nc12 [Dinaciclib] + Nc1ncn([C@H]2C[C@H](O)[C@@H](CO)O2)c(=O)n1 [Decitabine] (partner 2 µM)
Summary of the method: as §1

[3] = compound: CCc1cnn2c(NCc3ccc[n+]([O-])c3)cc(N3CCCC[C@H]3CCO)nc12 [Dinaciclib] + O=C(c1cc(Cc2n[nH]c(=O)c3ccccc23)ccc1F)N1CCN(C(=O)C2CC2)CC1 [Olaparib] (partner 8 µM)
Summary of the method: as §1

[4] = compound: CCc1cnn2c(NCc3ccc[n+]([O-])c3)cc(N3CCCC[C@H]3CCO)nc12 [Dinaciclib] + O=C(CCCCCCC(=O)Nc1ccccc1)NO [Vorinostat] (partner 1 µM)
Summary of the method: as §1

[5] = compound: CCc1cnn2c(NCc3ccc[n+]([O-])c3)cc(N3CCCC[C@H]3CCO)nc12 [Dinaciclib] + Cc1nc(NC(=O)N2CCC[C@H]2C(N)=O)sc1-c1ccnc(C(C)(C)C(F)(F)F)c1 [Alpelisib] (partner 2 µM)
Summary of the method: as §1

Cell Line | relative viability ([1]; first compound 0.009487 µM) | relative viability ([1]; first compound 0.03 µM) | relative viability ([1]; first compound 0.09487 µM) | relative viability ([1]; first compound 0.3 µM) | relative viability ([2]; first compound 0.009487 µM) | relative viability ([2]; first compound 0.03 µM) | relative viability ([2]; first compound 0.09487 µM) | relative viability ([2]; first compound 0.3 µM) | relative viability ([3]; first compound 0.009487 µM) | relative viability ([3]; first compound 0.03 µM) | relative viability ([3]; first compound 0.09487 µM) | relative viability ([3]; first compound 0.3 µM) | relative viability ([4]; first compound 0.009487 µM) | relative viability ([4]; first compound 0.03 µM) | relative viability ([4]; first compound 0.09487 µM) | relative viability ([4]; first compound 0.3 µM) | relative viability ([5]; first compound 0.009487 µM) | relative viability ([5]; first compound 0.03 µM) | relative viability ([5]; first compound 0.09487 µM) | relative viability ([5]; first compound 0.3 µM)
NCI-H647 | 0.149 | 0.0819 | 0.0645 | 0.0608 | 0.296 | 0.131 | 0.0349 | 0.0773 | 0.258 | 0.0359 | 0.0547 | 0.051 | 0.494 | 0.079 | 0.0693 | 0.0788 | 0.585 | 0.055 | 0.0588 | 0.0651
NCI-H2009 | 0.977 | 0.459 | 0.0817 | 0.0842 | 0.41 | 0.294 | 0.081 | 0.0958 | 0.584 | 0.254 | 0.0848 | 0.0797 | 0.806 | 0.202 | 0.0818 | 0.0781 | 0.923 | 0.151 | 0.102 | 0.0919
EPLC-272H | 0.189 | 0.0576 | 0.0509 | 0.0711 | 0.36 | 0.088 | 0.0389 | 0.0501 | 0.274 | 0.0455 | 0.0344 | 0.036 | 0.242 | 0.0369 | 0.0282 | 0.0401 | 0.828 | 0.542 | 0.0754 | 0.0887
NCI-H520 | 0.483 | 0.123 | 0.139 | 0.127 | 0.47 | 0.131 | 0.155 | 0.168 | 0.259 | 0.117 | 0.101 | 0.114 | 0.531 | 0.153 | 0.15 | 0.138 | 0.601 | 0.148 | 0.141 | 0.147
NCI-H2405 | 0.803 | 0.247 | 0.213 | 0.209 | 0.7 | 0.261 | 0.212 | 0.219 | 0.654 | 0.242 | 0.225 | 0.23 | 0.813 | 0.211 | 0.217 | 0.201 | 0.876 | 0.22 | 0.208 | 0.184
NCI-H2085 | 0.916 | 0.279 | 0.211 | 0.217 | 0.589 | 0.404 | 0.217 | 0.236 | 0.838 | 0.321 | 0.257 | 0.263 | 0.907 | 0.503 | 0.221 | 0.214 | 0.976 | 0.346 | 0.228 | 0.258
NCI-H322M | 0.569 | 0.326 | 0.313 | 0.343 | 0.713 | 0.441 | 0.416 | 0.348 | 0.652 | 0.304 | 0.328 | 0.321 | 0.898 | 0.396 | 0.347 | 0.399 | 0.737 | 0.718 | 0.196 | 0.211
NCI-H1944 | 0.712 | 0.119 | 0.14 | 0.136 | 0.44 | 0.199 | 0.137 | 0.156 | 0.395 | 0.126 | 0.182 | 0.108 | 0.522 | 0.172 | 0.11 | 0.133 | 0.904 | 0.221 | 0.152 | 0.166
